Experimental data: ChEMBL document CHEMBL5620350, “Recent advances in the development of dual ALK/ROS1 inhibitors for non-small cell lung cancer therapy” (Eur J Med Chem, 2023)
Each block holds one compound with its values, some of them ahead of it.

Tests used:
[1] = Inhibition of human […] G1202R mutant using Casein as substrate incubated for 120 mins in presence of [gamma-33P]-ATP
[2] = target: T1, Proto-oncogene tyrosine-protein kinase ROS (Homo sapiens, UniProt P08922, G2032R); assay: Inhibition of human ROS1 G2032R mutant using KKKSPGEYVNIEFG as substrate incubated for 120 mins in presence of [gamma-33P]-ATP
[3] = target: T2, Proto-oncogene tyrosine-protein kinase ROS (Homo sapiens, UniProt P08922); assay: Inhibition of human ROS1 using KKKSPGEYVNIEFG as substrate incubated for 120 mins in presence of [gamma-33P]-ATP
TGF-beta receptor type-1 = target: T3, TGF-beta receptor type-1 (Homo sapiens, UniProt P36897); assay: Inhibition of human […] using Casein as substrate incubated for 120 mins in presence of [gamma-33P]-ATP
T3 sequence (P36897 whole entry): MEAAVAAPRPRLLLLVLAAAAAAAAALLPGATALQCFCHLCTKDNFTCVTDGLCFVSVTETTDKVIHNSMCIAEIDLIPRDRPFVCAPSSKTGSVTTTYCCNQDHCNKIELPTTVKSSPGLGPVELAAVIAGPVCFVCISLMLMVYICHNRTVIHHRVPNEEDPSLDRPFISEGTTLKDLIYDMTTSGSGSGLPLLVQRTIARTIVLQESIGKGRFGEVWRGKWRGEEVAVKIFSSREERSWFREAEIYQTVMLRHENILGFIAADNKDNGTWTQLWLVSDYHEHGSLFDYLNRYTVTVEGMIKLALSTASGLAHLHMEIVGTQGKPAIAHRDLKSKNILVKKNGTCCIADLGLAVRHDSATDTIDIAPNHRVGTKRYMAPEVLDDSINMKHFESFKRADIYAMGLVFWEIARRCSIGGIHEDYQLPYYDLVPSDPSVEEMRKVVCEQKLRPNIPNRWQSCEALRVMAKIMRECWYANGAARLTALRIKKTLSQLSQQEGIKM

HCC78 = assay: Cytotoxicity against human HCC78 cells incubated for 72 hrs by MTT assay; type: functional, cell-based
NCI-H2228 = assay: Cytotoxicity against human NCI-H2228 cells incubated for 72 hrs by MTT assay; type: functional, cell-based; settings: NCI-H2228, 72 h
[4] = target: T4, ALK tyrosine kinase receptor (Homo sapiens, UniProt Q9UM73); assay: Inhibition of wild-type ALK (unknown origin)
[5] = target: T4, ALK tyrosine kinase receptor; assay: Inhibition of wild type ALK (unknown origin) expressed in BaF3 cells incubated for 4 hrs; type: cell-based
[6] = target: T2, Proto-oncogene tyrosine-protein kinase ROS; assay: Inhibition of wild type ROS1 (unknown origin) expressed in BaF3 cells incubated for 4 hrs; type: cell-based
[7] = target: T2, Proto-oncogene tyrosine-protein kinase ROS; assay: Inhibition of recombinant human ROS1 preincubated for 5 to 10 mins followed by substrate and ATP addition and measured after 60 mins by TR-FRET assay
[8] = target: T1, Proto-oncogene tyrosine-protein kinase ROS; assay: Inhibition of recombinant human ROS1 G2032R mutant preincubated for 5 to 10 mins followed by substrate and ATP addition and measured after 60 mins by TR-FRET assay
[9] = target: ALK tyrosine kinase receptor (Homo sapiens, UniProt Q9UM73, G1202R/L1196M); assay: Inhibition of human ALK L1196M/G1202R double mutant preincubated for 5 to 10 mins followed by substrate and ATP addition and measured after 60 mins by TR-FRET assay
[10] = target: T4, ALK tyrosine kinase receptor; assay: Inhibition of human ALK preincubated for 5 to 10 mins followed by substrate and ATP addition and measured after 60 mins by TR-FRET assay
BaF3 [11] = assay: Antitumor activity against mouse BaF3 cells harboring wild type ROS1 assessed as tumor growth inhibition at 2.2 nM; type: functional; parameters: scale not given: the % may be the effect or the level left
BaF3 [12] = assay: Antitumor activity against mouse BaF3 cells harboring EML4 ALK V1 G1202R mutant assessed as tumor growth inhibition at 2.2 nM; type: functional; parameters: scale not given: the % may be the effect or the level left
BaF3 [13] = assay: Antitumor activity against mouse BaF3 cells harboring ROS1 G2032 mutant assessed as tumor growth inhibition at 2.2 nM; type: functional; parameters: scale not given: the % may be the effect or the level left
[14] = target: T2, Proto-oncogene tyrosine-protein kinase ROS; assay: Inhibition of ROS1 (unknown origin) incubated for 1 hr by HTRF assay
[15] = target: T4, ALK tyrosine kinase receptor; assay: Inhibition of ALK (unknown origin) incubated for 1 hr by HTRF assay

T2 sequence (P08922 whole entry): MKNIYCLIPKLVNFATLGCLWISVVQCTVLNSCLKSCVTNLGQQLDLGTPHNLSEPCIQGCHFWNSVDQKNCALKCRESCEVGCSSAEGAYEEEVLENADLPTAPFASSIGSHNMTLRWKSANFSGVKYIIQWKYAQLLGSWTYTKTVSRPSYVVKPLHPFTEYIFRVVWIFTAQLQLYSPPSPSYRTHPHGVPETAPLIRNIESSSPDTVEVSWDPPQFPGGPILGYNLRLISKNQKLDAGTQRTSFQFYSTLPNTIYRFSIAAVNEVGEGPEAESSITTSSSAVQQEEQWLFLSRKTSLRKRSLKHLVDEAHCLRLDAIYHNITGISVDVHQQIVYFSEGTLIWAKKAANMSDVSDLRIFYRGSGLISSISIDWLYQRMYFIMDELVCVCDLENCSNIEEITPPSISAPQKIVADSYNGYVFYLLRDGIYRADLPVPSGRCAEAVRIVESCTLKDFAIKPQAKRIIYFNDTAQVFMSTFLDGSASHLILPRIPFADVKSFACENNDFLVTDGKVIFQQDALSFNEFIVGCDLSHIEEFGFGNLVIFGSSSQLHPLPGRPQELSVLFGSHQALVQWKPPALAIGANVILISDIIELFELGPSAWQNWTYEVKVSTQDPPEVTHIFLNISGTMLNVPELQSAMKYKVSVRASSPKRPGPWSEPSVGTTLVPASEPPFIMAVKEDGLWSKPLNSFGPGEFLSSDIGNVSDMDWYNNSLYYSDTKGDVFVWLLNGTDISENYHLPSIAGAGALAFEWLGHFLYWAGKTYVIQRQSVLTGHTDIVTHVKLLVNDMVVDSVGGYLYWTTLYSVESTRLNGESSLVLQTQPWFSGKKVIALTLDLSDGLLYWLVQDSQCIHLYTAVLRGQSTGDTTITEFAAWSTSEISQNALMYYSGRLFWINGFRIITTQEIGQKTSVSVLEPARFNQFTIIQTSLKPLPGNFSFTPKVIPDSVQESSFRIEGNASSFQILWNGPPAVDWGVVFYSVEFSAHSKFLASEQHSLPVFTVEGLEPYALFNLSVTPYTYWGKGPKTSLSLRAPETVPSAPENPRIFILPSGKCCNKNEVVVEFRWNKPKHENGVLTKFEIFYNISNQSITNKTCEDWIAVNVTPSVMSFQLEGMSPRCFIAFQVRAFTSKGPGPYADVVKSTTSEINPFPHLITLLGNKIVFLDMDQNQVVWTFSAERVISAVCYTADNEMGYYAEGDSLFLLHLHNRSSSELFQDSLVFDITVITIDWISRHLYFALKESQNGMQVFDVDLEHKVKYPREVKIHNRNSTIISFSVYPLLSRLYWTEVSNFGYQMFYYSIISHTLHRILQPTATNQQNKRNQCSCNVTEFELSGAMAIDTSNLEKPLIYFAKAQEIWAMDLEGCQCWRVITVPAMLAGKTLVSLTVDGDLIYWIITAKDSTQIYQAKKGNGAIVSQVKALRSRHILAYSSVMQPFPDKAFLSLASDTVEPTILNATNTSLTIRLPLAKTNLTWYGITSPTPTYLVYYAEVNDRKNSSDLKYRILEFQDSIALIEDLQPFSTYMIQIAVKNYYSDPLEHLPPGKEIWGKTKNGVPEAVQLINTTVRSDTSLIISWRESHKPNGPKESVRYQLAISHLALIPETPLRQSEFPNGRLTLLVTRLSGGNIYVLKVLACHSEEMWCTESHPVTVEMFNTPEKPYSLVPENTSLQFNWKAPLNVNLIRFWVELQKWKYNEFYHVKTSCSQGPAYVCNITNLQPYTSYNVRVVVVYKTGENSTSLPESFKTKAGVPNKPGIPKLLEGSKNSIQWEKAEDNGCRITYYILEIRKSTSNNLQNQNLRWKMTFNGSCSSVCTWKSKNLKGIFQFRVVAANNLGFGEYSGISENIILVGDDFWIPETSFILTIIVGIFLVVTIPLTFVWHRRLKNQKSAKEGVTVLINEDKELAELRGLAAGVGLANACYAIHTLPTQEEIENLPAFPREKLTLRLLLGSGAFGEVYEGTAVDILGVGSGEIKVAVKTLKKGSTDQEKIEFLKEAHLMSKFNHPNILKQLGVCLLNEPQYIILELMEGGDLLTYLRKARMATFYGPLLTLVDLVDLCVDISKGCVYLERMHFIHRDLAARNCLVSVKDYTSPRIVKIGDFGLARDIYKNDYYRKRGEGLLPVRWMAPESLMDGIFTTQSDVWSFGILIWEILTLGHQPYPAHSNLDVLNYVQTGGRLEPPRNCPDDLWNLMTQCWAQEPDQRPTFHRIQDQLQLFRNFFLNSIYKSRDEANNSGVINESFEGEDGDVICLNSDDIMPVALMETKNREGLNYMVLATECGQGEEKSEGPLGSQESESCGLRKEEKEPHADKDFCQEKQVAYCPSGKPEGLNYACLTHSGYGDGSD
T1 sequence (P08922 28-2347 G2032R limits assumed): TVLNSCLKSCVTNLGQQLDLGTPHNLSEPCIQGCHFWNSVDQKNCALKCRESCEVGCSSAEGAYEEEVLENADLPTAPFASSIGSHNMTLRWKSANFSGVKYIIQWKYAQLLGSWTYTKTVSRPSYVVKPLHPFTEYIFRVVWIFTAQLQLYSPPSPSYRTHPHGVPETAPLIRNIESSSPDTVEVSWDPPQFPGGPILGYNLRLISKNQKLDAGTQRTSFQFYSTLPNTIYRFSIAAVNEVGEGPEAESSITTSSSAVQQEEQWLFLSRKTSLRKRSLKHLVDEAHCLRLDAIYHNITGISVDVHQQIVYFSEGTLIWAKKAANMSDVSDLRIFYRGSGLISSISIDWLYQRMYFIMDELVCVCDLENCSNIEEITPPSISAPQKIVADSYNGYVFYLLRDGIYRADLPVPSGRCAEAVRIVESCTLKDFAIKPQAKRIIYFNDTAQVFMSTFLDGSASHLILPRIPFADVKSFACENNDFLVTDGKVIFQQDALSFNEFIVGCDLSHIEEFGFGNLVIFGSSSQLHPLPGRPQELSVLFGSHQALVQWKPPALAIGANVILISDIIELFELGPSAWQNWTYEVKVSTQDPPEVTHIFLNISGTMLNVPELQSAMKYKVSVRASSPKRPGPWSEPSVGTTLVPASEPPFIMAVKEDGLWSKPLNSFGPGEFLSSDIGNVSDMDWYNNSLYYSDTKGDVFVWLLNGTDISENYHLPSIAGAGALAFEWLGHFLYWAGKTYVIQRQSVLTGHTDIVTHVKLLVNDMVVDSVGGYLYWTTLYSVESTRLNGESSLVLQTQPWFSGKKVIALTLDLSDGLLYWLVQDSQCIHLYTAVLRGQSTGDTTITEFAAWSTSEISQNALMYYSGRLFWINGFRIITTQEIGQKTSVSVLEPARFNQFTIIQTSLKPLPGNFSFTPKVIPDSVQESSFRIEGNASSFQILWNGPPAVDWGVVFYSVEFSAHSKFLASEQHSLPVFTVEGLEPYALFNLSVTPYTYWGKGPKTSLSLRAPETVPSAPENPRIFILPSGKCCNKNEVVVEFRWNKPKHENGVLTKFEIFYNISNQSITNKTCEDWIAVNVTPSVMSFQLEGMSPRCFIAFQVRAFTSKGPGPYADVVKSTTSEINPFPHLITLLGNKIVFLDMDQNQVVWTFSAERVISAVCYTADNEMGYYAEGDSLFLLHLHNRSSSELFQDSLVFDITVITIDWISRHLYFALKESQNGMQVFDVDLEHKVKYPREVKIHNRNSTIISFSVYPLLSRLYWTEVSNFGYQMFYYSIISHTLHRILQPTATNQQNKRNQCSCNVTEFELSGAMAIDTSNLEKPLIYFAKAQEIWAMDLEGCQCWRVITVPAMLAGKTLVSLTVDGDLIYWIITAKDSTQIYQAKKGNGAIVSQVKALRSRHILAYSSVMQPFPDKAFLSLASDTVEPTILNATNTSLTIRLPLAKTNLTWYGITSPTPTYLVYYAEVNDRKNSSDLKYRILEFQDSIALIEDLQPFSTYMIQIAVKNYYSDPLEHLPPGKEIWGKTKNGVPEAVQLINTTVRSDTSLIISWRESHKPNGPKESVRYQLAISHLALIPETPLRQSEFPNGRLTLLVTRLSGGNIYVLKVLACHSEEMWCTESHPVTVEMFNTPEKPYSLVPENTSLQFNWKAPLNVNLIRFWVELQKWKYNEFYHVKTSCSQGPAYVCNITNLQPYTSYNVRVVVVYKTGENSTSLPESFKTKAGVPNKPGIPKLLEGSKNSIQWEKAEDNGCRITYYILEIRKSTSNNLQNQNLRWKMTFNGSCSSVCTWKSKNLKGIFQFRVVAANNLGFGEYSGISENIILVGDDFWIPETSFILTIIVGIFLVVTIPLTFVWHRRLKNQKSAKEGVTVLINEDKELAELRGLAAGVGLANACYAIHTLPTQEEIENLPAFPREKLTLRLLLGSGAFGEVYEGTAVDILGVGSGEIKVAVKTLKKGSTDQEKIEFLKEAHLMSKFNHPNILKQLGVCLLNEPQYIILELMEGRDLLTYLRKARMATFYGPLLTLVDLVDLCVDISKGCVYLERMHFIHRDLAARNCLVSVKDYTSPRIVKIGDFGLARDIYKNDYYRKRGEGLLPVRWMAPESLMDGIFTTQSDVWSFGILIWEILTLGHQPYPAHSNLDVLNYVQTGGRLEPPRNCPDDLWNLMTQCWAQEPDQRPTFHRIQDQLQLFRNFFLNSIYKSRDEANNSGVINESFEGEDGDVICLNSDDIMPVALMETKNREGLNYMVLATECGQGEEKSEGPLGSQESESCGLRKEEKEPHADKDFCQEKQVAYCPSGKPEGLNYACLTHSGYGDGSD

SMILES: COc1ccc(CNC(=O)Cn2nc(-c3ccccc3)c3cnc4ccccc4c32)cc1
IC50 (HCC78; Homo sapiens, HCC78, 72 h): 1620 nM | IC50 (HCC78; hcc78): 1610 nM | IC50 (NCI-H2228): 2710 nM

SMILES: O=C(Nc1n[nH]c2ncc(S(=O)(=O)c3cccc(F)c3)cc12)c1ccc(N2CCOCC2)cc1
IC50 [4]: 0.6 nM

SMILES: C[C@H]1Nc2ccn3ncc(c3n2)C(=O)N[C@@]2(C)CC3=CC(F)=CC1C3O2 (some centres not stated)
IC50 [7]: 0.84 nM | IC50 [8]: 0.34 nM | IC50 [9]: 20.7 nM | IC50 [10]: 2.02 nM

SMILES: C[C@H]1CNC(=O)c2cnn3ccc(nc23)N[C@H](C)c2cc(F)ccc2O1 [REPOTRECTINIB]
Activity (BaF3 [11]): 197% | Activity (BaF3 [12]): 99% | Activity (BaF3 [13]): 99%

SMILES: COc1cc(-n2cccc2CN2CCN(C)CC2)ccc1Nc1ncc(Cl)c(Nc2ccccc2NS(C)(=O)=O)n1
IC50 [14]: 3.6 nM | IC50 [15]: 1.8 nM

More lines, now with the values ahead:

IC50 [1]: < 50 nM | IC50 [2]: < 0.5 nM | IC50 [3]: < 0.5 nM | IC50 (TGF-beta receptor type-1): < 50 nM
SMILES: COc1ccc(F)cc1[C@@H](C)Nc1ccn2ncc(C3=NOC(C)(C)N3)c2n1

IC50 [1]: < 50 nM | IC50 [2]: < 0.5 nM | IC50 [3]: < 0.5 nM | IC50 (TGF-beta receptor type-1): < 50 nM
SMILES: CCOc1ccc(F)cc1[C@@H](C)Nc1ccn2ncc(C3=NOC(C)N3)c2n1 (some centres not stated)

IC50 [1]: < 50 nM | IC50 [2]: < 0.5 nM | IC50 [3]: < 0.5 nM | IC50 (TGF-beta receptor type-1): < 50 nM
SMILES: CC(C)Oc1ccc(F)cc1[C@@H](C)Nc1ccn2ncc(C3=NOC(C)N3)c2n1 (some centres not stated)

IC50 [5]: 2 nM | IC50 [6]: 2 nM
SMILES: C[C@H]1Nc2ccn3ncc(c3n2)C(=O)NC[C@@H](CF)Oc2ccc(F)cc21
